We go through 11 molecules from patent US20150105429A1, “BENZYL SULFONAMIDE DERIVATIVES AS RORC MODULATORS” (Genentech, Inc., priority 2011, published 2015).

In the assay the target is T1, RORc ligand binding domain (Homo sapiens, UniProt P51449).
T1 construct: host or cells: E. coli
T1 sequence (P51449 269-508 limits assumed): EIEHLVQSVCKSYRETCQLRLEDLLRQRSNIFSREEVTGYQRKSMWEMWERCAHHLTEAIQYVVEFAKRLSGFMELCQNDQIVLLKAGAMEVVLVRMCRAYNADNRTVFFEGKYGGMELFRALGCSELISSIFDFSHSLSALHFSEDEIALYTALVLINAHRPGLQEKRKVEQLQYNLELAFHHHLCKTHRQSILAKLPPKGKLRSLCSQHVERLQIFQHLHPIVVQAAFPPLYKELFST
Nature of the assay: In Vitro RORc Ligand Binding Assay. Particulars: radioligand 25-[3H]hydroxycholesterol 6 nM; 0.6 ug/mL RORc receptor; 3 h at 25° C.; read-out: IC50 values (micromolar) for RORc affinity. How it is done:
This assay was used to determine a compound's potency in inhibiting activity of RORc by determining, Kiapp, IC50, or percent inhibition values.
On day of the assay, 100 uL of 0.05% CHAPS (in deionized H2O) was added to all wells of the GFB Unifilter plate and allowed soak for 1 h. A wash buffer of 50 mM HEPES (pH 7.4), 150 mM NaCl, and 5 mM MgCl2 was prepared to wash the filter plate. To prepare an assay buffer, BSA was added to the wash buffer to reach 0.01% and DTT was added to reach 1 mM.
The 20× compound stocks were diluted in DMSO with Assay Buffer 4-fold to reach 5× the final test concentration in 25% DMSO (10 uL compound+30 uL Assay Buffer). Solutions were mixed by aspiration several times with a pipette set on 50 uL volume. For the assay, 10 uL of 5× compound stock solutions in 25% DMSO were added to the assay plate in duplicate.
For two point screening, 10 mM stock compound solutions were diluted in DMSO to obtain 200 uM (20× the high test concentration) and then diluted 10-fold further to reach 20 uM (20× the low test concentration). The 20× stocks were diluted 4-fold with Assay Buffer (10 uL compound+30 uL Assay Buffer) to reach 5× the test concentrations (50 uM and 5 uM) and 10 uL were added to two assay plates for the duplicate wells. With each concentration tested on 2 plates, each set of 80 compounds used 4 assay plates (1 uM and 10 uM, with n=2).
For 25-hydroxycholesterol in 25% DMSO/75% Assay Buffer; 10 uL per well was used for NSB samples. Wells for Total Binding and No Receptor sample determination contained 10 uL of 25% DMSO/75% Assay Buffer per well.
Radioligand (25-[^3H]hydroxycholesterol) Preparation
Added 20 uL to all wells to reach 6 nM final in the assay.
Stock receptor solution was diluted in assay buffer to obtain 1.5 ug/mL in Assay Buffer. 20 uL was added to all wells. For No R samples, 20 uL Assay Buffer was substituted for receptor solution.
Assay plates were 96-well polypropylene V-bottom plates. 10 uL of 5× compound in 25% DMSO/75% Assay Buffer was added to Test wells. 10 uL of 25% DMSO/75% Assay Buffer was added to Total Binding or No Receptor wells. 10 uL of 5 uM 25-hydroxycholesterol in 25% DMSO/75% Assay Buffer was added to NSB wells. […] 20 uL of 1.5 ug/mL RORc receptor was added to wells (or 40 uL Assay Buffer to No R wells). Following addition to the wells, the plates were incubated 3 h at 25° C.
Using a Packard Filtermate Harvester, the filter plates were washed 4 times following transfer of the incubated samples. Plates were dry-filtered completely (2 h at 50° C. or overnight at room temperature). 50 uL Microscint 0 was added to all wells and read on Topcount protocol Inverted.
Final concentrations were as follows: 50 mM HEPES buffer (pH 7.4); 150 mM NaCl; 1 mM DTT; 5 mM MgCl2; 0.01% BSA; 5% DMSO; 0.6 ug/mL RORc receptor; 6 nM 25-[^3H]hydroxycholesterol. For NSB wells, 1 uM 25-hydroxycholesterol was also present.

Regarding `Cc1nn(C)c(C)c1S(=O)(=O)N(Cc1ccc(-c2cccc(S(C)(=O)=O)c2)s1)CC(C)C` [Compound 61, 1,3,5-Trimethyl-1H-pyrazole-4-sulfonic acid isobutyl-[5-(3-methanesulfonyl-phenyl)-thiophen-2-ylmethyl]-amide], the IC50 worked out at 3.6 µM. In the case of `Cc1n[nH]c(C)c1S(=O)(=O)N(Cc1ccc(-c2cccc(S(C)(=O)=O)c2)s1)CC(C)C` [Compound 32, 3,5-Dimethyl-1H-pyrazole-4-sulfonic acid isobutyl-[5-(3-methanesulfonyl-phenyl)-thiophen-2-ylmethyl]-amide], the IC50 worked out at 2.5 µM.

On to `Cc1n[nH]c(C)c1-c1ccc(CN(CC(C)C)S(=O)(=O)Cc2ccccc2)s1` [Compound 49, N-[5-(3,5-Dimethyl-1H-pyrazol-4-yl)-thiophen-2-ylmethyl]-N-isobutyl-C-phenyl-methanesulfonamide], for which the IC50 is 0.377 µM. Turning to `CC(=O)Nc1ccc(-c2ccc(CN(CC(C)C)S(=O)(=O)Cc3ccccc3)s2)cn1` [Compound 52, N-(5-{5-[(Isobutyl-phenylmethanesulfonyl-amino)-methyl]-thiophen-2-yl}-pyridin-2-yl)-acetamide], the IC50 was determined as 3 µM. On to `CC(C)CN(Cc1ccc(-c2cc(F)c(CO)c(S(C)(=O)=O)c2)s1)S(=O)(=O)Cc1ccccc1` [Compound 63, N-((5-(3-fluoro-4-(hydroxymethyl)-5-(methylsulfonyl)phenyl)thiophen-2-yl)methyl)-N-isobutyl-1-phenylmethanesulfonamide], for which the IC50 worked out at 5 µM. In the case of `CC(C)CN([C@@H](C)c1ccc(-c2ccc(NS(C)(=O)=O)cc2)cc1)S(=O)(=O)Cc1ccccc1` [Compound 20, N-Isobutyl-N-[(S)-1-(4′-methanesulfonylamino-biphenyl-4-yl)-ethyl]-C-phenyl-methanesulfonamide] it was 0.251 µM. `CC(C)CN(Cc1cc(-c2ccc(S(C)(=O)=O)cc2)cs1)S(=O)(=O)Cc1ccccc1` [Compound 59, N-Isobutyl-N-[4-(4-methanesulfonyl-phenyl)-thiophen-2-ylmethyl]-C-phenyl-methanesulfonamide]: the IC50 is 0.278 µM. In the case of `CC(C)CN(Cc1ccc(-c2ccc(S(C)(=O)=O)cc2)cc1F)S(=O)(=O)Cc1ccccc1` [Compound 22, N-(3-Fluoro-4′-methanesulfonyl-biphenyl-4-ylmethyl)-N-isobutyl-C-phenyl-methanesulfonamide], the IC50 turned out to be 0.019 µM.

With `CC(C)CN(Cc1ccc(-c2cccc(S(C)(=O)=O)c2)s1)S(=O)(=O)C1CCCC1` [Compound 60, Cyclopentanesulfonic acid isobutyl-[5-(3-methanesulfonyl-phenyl)-thiophen-2-ylmethyl]-amide], the 50% inhibitory concentration (IC50) worked out at 1.8 µM. Consider `CC(C)N(Cc1ccc(-c2ccc(S(C)(=O)=O)cc2)s1)S(=O)(=O)Cc1ccccc1` [Compound 56, N-Isopropyl-N-[5-(4-methanesulfonyl-phenyl)-thiophen-2-ylmethyl]-C-phenyl-methanesulfonamide], for which the IC50 amounted to 0.195 µM. Consider `CC(C)CN(Cc1ccc(-c2cccc(S(C)(=O)=O)c2)s1)S(=O)(=O)c1ccccc1C#N` [Compound 27, 2-Cyano-N-isobutyl-N-[5-(3-methanesulfonyl-phenyl)-thiophen-2-ylmethyl]-benzenesulfonamide], for which the IC50 turned out to be 3.7 µM.
